{"source": "patent US20070049564A1", "about": "(Wyeth, priority 2005, published 2007)", "experiment_in_all_cases": "MIC, broth microdilution", "key": {"E. coli GC 2233": {"test_system": "E. coli GC 2233", "details": "Escherichia coli, GC2233, E. coli GC 2233"}, "E. coli GC 2270": {"test_system": "E. coli GC 2270", "details": "Escherichia coli, GC2270, E. coli GC 2270"}, "E. coli GC 2271": {"test_system": "E. coli GC 2271", "details": "Escherichia coli, GC2271, E. coli GC 2271"}, "E. coli GC 2272": {"test_system": "E. coli GC 2272", "details": "Escherichia coli, GC2272, E. coli GC 2272"}, "E. coli GC 4560": {"test_system": "E. coli GC 4560", "details": "Escherichia coli, GC4560, E. coli GC 4560"}, "E. coli GC 6465": {"test_system": "E. coli GC 6465", "details": "Escherichia coli, GC6465, E. coli GC 6465"}, "E. coli GC 3226": {"test_system": "E. coli GC 3226", "details": "Escherichia coli, GC3226, E. coli GC 3226"}, "E. coli GC 2203": {"test_system": "E. coli GC 2203", "details": "Escherichia coli, GC2203, E. coli GC 2203"}, "E. coli GC 1073": {"test_system": "E. coli GC 1073", "details": "Escherichia coli, GC1073, E. coli GC 1073"}, "P. aeruginosa GC 2214": {"test_system": "P. aeruginosa GC 2214", "details": "Pseudomonas aeruginosa, GC2214, P. aeruginosa GC 2214"}, "S. aureus GC 1131": {"test_system": "S. aureus GC 1131", "details": "Staphylococcus aureus, GC1131, S. aureus GC 1131"}, "S. aureus GC 6467": {"test_system": "S. aureus GC 6467", "details": "Staphylococcus aureus, GC6467, S. aureus GC 6467"}, "S. aureus GC 1079": {"test_system": "S. aureus GC 1079", "details": "Staphylococcus aureus, GC1079, S. aureus GC 1079"}, "S. aureus GC 6335": {"test_system": "S. aureus GC 6335", "details": "Staphylococcus aureus, GC6335, S. aureus GC 6335"}, "S. aureus GC 6469": {"test_system": "S. aureus GC 6469", "details": "Staphylococcus aureus, GC6469, S. aureus GC 6469"}, "S. epidermidis GC 4935": {"test_system": "S. epidermidis GC 4935", "details": "Staphylococcus epidermidis, GC4935, S. epidermidis GC 4935"}, "E. faecalis GC 2265": {"test_system": "E. faecalis GC 2265", "details": "Enterococcus faecalis, GC2265, E. faecalis GC 2265"}, "E. faecalis GC 2267": {"test_system": "E. faecalis GC 2267", "details": "Enterococcus faecalis, GC2267, E. faecalis GC 2267"}, "E. faecium GC 2243": {"test_system": "E. faecium GC 2243", "details": "Enterococcus faecium, GC2243, E. faecium GC 2243"}, "c. albicans GC 3066": {"test_system": "c. albicans GC 3066"}}}
{"smiles": "CCCCN(CC(=O)Nc1cc(N(C)C)c2c(c1O)C(=O)C1=C(O)[C@]3(O)C(=O)C(C(N)=O)=C(O)[C@@H](N(C)C)C3CC1C2)C(=O)OCOC(=O)C(C)C", "note": "(stereo partly drawn) [Example 1, ({[(2-{[(7S,10aS)-9-(aminocarbonyl)-4,7-bis(dimethylamino)-1,8,10a,11-tetrahydroxy-10,12-dioxo-5,5a,6,6a,7,10,10a,12-octahydrotetracen-2-yl]amino}-2-oxoethyl)(butyl)amino]carbonyl}oxy)methyl 2-methylpropanoate]", "values": [{"measurement": "MIC", "setting": "E. coli GC 2233; Mouse Serum pre-incubation", "result": 1, "unit": "µg/mL"}, {"measurement": "MIC", "setting": "E. coli GC 2233; Water pre-incubation", "result": 16, "unit": "µg/mL"}, {"measurement": "MIC", "setting": "E. coli GC 2270; Mouse Serum pre-incubation", "result": 0.5, "unit": "µg/mL"}, {"measurement": "MIC", "setting": "E. coli GC 2270; Water pre-incubation", "result": 16, "unit": "µg/mL"}, {"measurement": "MIC", "setting": "E. coli GC 2271; Mouse Serum pre-incubation", "result": 0.5, "unit": "µg/mL"}, {"measurement": "MIC", "setting": "E. coli GC 2271; Water pre-incubation", "result": 16, "unit": "µg/mL"}, {"measurement": "MIC", "setting": "E. coli GC 2272; Mouse Serum pre-incubation", "result": 1, "unit": "µg/mL"}, {"measurement": "MIC", "setting": "E. coli GC 2272; Water pre-incubation", "result": 16, "unit": "µg/mL"}, {"measurement": "MIC", "setting": "E. coli GC 4560; Mouse Serum pre-incubation", "result": 0.5, "unit": "µg/mL"}, {"measurement": "MIC", "setting": "E. coli GC 4560; Water pre-incubation", "result": 2, "unit": "µg/mL"}, {"measurement": "MIC", "setting": "E. coli GC 6465; Mouse Serum pre-incubation", "result": 8, "unit": "µg/mL"}, {"measurement": "MIC", "setting": "E. coli GC 6465; Water pre-incubation", "result": "> 64", "unit": "µg/mL"}, {"measurement": "MIC", "setting": "E. coli GC 3226; Mouse Serum pre-incubation", "result": 1, "unit": "µg/mL"}, {"measurement": "MIC", "setting": "E. coli GC 3226; Water pre-incubation", "result": 32, "unit": "µg/mL"}, {"measurement": "MIC", "setting": "E. coli GC 2203; Mouse Serum pre-incubation", "result": 0.5, "unit": "µg/mL"}, {"measurement": "MIC", "setting": "E. coli GC 2203; Water pre-incubation", "result": 16, "unit": "µg/mL"}, {"measurement": "MIC", "setting": "E. coli GC 1073; Mouse Serum pre-incubation", "result": 1, "unit": "µg/mL"}, {"measurement": "MIC", "setting": "E. coli GC 1073; Water pre-incubation", "result": 32, "unit": "µg/mL"}, {"measurement": "MIC", "setting": "P. aeruginosa GC 2214; Mouse Serum pre-incubation", "result": 32, "unit": "µg/mL"}, {"measurement": "MIC", "setting": "P. aeruginosa GC 2214; Water pre-incubation", "result": "> 64", "unit": "µg/mL"}, {"measurement": "MIC", "setting": "S. aureus GC 1131; Mouse Serum pre-incubation", "result": 1, "unit": "µg/mL"}, {"measurement": "MIC", "setting": "S. aureus GC 1131; Water pre-incubation", "result": 4, "unit": "µg/mL"}, {"measurement": "MIC", "setting": "S. aureus GC 6467; Mouse Serum pre-incubation", "result": 4, "unit": "µg/mL"}, {"measurement": "MIC", "setting": "S. aureus GC 6467; Water pre-incubation", "result": 4, "unit": "µg/mL"}, {"measurement": "MIC", "setting": "S. aureus GC 1079; Mouse Serum pre-incubation", "result": 2, "unit": "µg/mL"}, {"measurement": "MIC", "setting": "S. aureus GC 1079; Water pre-incubation", "result": 4, "unit": "µg/mL"}, {"measurement": "MIC", "setting": "S. aureus GC 6335; Mouse Serum pre-incubation", "result": 2, "unit": "µg/mL"}, {"measurement": "MIC", "setting": "S. aureus GC 6335; Water pre-incubation", "result": 4, "unit": "µg/mL"}, {"measurement": "MIC", "setting": "S. aureus GC 6469; Mouse Serum pre-incubation", "result": 2, "unit": "µg/mL"}, {"measurement": "MIC", "setting": "S. aureus GC 6469; Water pre-incubation", "result": 8, "unit": "µg/mL"}, {"measurement": "MIC", "setting": "S. epidermidis GC 4935; Mouse Serum pre-incubation", "result": 2, "unit": "µg/mL"}, {"measurement": "MIC", "setting": "S. epidermidis GC 4935; Water pre-incubation", "result": 8, "unit": "µg/mL"}, {"measurement": "MIC", "setting": "E. faecalis GC 2265; Mouse Serum pre-incubation", "result": 1, "unit": "µg/mL"}, {"measurement": "MIC", "setting": "E. faecalis GC 2265; Water pre-incubation", "result": 4, "unit": "µg/mL"}, {"measurement": "MIC", "setting": "E. faecalis GC 2267; Mouse Serum pre-incubation", "result": 2, "unit": "µg/mL"}, {"measurement": "MIC", "setting": "E. faecalis GC 2267; Water pre-incubation", "result": 8, "unit": "µg/mL"}, {"measurement": "MIC", "setting": "E. faecium GC 2243; Mouse Serum pre-incubation", "result": 1, "unit": "µg/mL"}, {"measurement": "MIC", "setting": "E. faecium GC 2243; Water pre-incubation", "result": 2, "unit": "µg/mL"}, {"measurement": "MIC", "setting": "c. albicans GC 3066; Candida albicans, GC3066", "result": "> 64", "unit": "µg/mL"}, {"measurement": "MIC", "setting": "c. albicans GC 3066; c. albicans GC 3066, Water pre-incubation", "result": ">64", "unit": "UG/ML"}]}
